The record followed here is patent US5637570A, “Disubstituted and trisubstituted derivatives of 2,3:4,6-di-O-isopropylidene-α-L-xylo-2-hexulofuranosonic acid having anti-cancer, anti-inflammatory and anti-proliferative activity” (Chemora Pharmochem, priority 1995, dated 1997).

SMILES strings stand for the structures. Read-outs that look alike come from different tables or passages of the source. Bounds are passed on as bounds.

Type in all cases: cell-based
Experiment [1] deals with T cells (splenic T cell proliferation, co-cultured spleen cells from two strains of mice). In words: Mixed lymphocyte response (MLR). The conditions noted are these: Mus musculus, Anti-inflammatory/Anti-proliferative Activity. The source says: i Mixed lymphocyte response (MLR).
(§1) The MLR assay measures the effects of a study compound on the activation and antigen presentation of T-lymphocytes, therefore determining immunomodulatory properties. The mouse spleen cell mitogen-induced blastogenesis and the BUD-8 human fibroblast proliferation assays measure the effects of the compounds of the present invention on cellular proliferation of cells involved in the pathogenesis of autoimmune diseases. These two assays are appropriate as screens to ascertain anti-inflammatory and/or autoimmune diseases.
The MLR is a classical assay used to measure T cell function by studying the proliferation response of T cells which are activated in vitro by genetically disparate stimulator cells. This is accomplished by co-culturing spleen cells from two different strains of mice. Splenic T cell proliferation occurs as a result of cellular activation signals generated by the ongoing cellular interactions.
(§2) The detailed experimental procedure for the above-mentioned assays is described in detail in U.S. Pat. Nos. 5,360,790 and 5,367,062 incorporated herein by reference.

In experiment [2] the test system is mouse spleen cell (T-lymphocyte). In words: Concanavalin A (CON-A) assay, mouse spleen cell mitogen induced blastogenesis. As to conditions: Anti-inflammatory/Anti-proliferative Activity.
Excerpt: iii Concanavalin A assay (the mouse spleen cell mitogen induced blastogenesis).
as §1
It is known that the induction and maintenance of most inflammatory diseases are typically due to the unrestricted activity of T-lymphocytes. Therefore, it is advantageous to identify compounds which are modulators of T-lymphocyte activity for eventual use in the regulation of inflammatory diseases, including acquired immune deficiency syndrome, psoriasis, systemic lupus, erythromatosus, and rheumatoid arthritis.
as §2

For another experiment, the system named is BUD-8 human fibroblast. Put plainly: BUD-8 human cell line fibroblast proliferation assay (FIB.). The conditions noted are these: Anti-inflammatory/Anti-proliferative Activity.
Excerpt: ii BUD-8 human cell line fibroblast proliferation assay.
as §1
The skin cell fibroblast line, BUD-8, was originally derived from the normal skin of a person and can now be obtained from the American Type Culture Collection, Rockville, Md.
as §2

The subject of experiment [3] is human tumor cell lines (approximately 60). In words: NCI in vitro human tumor cell line screen (SRB), mean graph midpoints over all cell lines. The conditions noted are these: for CC50 / GI50 / IC (TGI): Homo sapiens, average of all cell lines, 48 h; for CC50: 50% cell death (-50% growth), read-out: log10 LC50 mean graph midpoint (converted); for IC (TGI): total cell growth inhibition (0% growth), read-out: log10 TGI mean graph midpoint (converted).
Procedure: In performing in vitro human tumor cell line assay, a total of approximately 60 human tumor cell lines derived from ten cancer types (leukemia, non-small cell lung cancer, small cell lung cancer, colon cancer, CNS cancer, melanoma, ovarian cancer, renal cancer, breast cancer and prostate cancer) were used in this assay. Compounds were tested at different concentrations against every cell line. All lines are inoculated into a series of standard 96-well microtiter plates on day 0, in the majority of cases at 20,000 cells/well, and then pre-incubated in the absence of testing agent for 24 hours. A testing agent was then added in five 10-fold dilutions and incubated for a further period of 48 hours. Following this, the cells are fixed in situ, washed, and dried. Sulforhodamine B (SRB, protein binding dye) is added, followed by further washing and drying of the stained adherent cell mass. The bound stain is solubilized and measured spectrophotometrically on an automatic plate reader.
For each compound, dose response curves for each cell line were measured with five different drug concentrations, and the concentration causing 50% cell growth inhibition (GI50), total cell growth inhibition (TGI, 0% growth), and 50% cell death (LC50, -50% growth) compared with the control was calculated. […] In these graphs, the mean logarithmic value of GI50 in all cell lines for each tested compound is used as the midpoint of that bar graph.

Where [4] appears, read: 50% cell growth inhibition, read-out: GI50 (average).
Setting [5] is: log10 of molar concentration, read-out: log10 I50 (log10 GI50 mean graph midpoint) (converted).

Usually IC50 stands for the concentration needed to halve the response being measured. One may read the GI50 as the concentration giving 50% growth inhibition. For the compound `CCCCCCCCCCCCOC[C@@]12O[C@@H](CN3CCCC3)[C@@H](O)[C@@H]1OC(C)(C)O2` [Ia, 2,3-O-Isopropylidene-6-deoxy-6-(1-pyrrolidinyl)-1-O-dodecyl-α-L-xylo-2-hexulofuranose], the IC50 is below 1 µM in experiment [1], below 1 µM in experiment [2] and below 3 µM in the experiment with BUD-8 human fibroblast. Further, the CC50 in experiment [3] was 13.2 µM. Also, the results for the GI50 in experiment [3] (setting [4]) and in experiment [3] (setting [5]) were 4.21 µM and 0.204 µM, respectively. Also, the IC (TGI) in experiment [3] is 4.37 µM.
For the compound `CCCCCCCCCCCCOC[C@@]12O[C@@H](CN3CCCCCC3)[C@@H](O)[C@@H]1OC(C)(C)O2` [Id, 2,3-O-Isopropylidene-6-deoxy-6-(1-hexamethyleneimino)-1-O-dodecyl-α-L-xylo-2-hexulofuranose], the IC50 in experiment [1] was below 1 µM; in experiment [2], below 3 µM; in the experiment with BUD-8 human fibroblast, below 3 µM. The CC50 in experiment [3] was 10.7 µM. In addition, the GI50 in experiment [3] (setting [4]) was 3.87 µM; in experiment [3] (setting [5]), 1.82 µM. Moreover, the IC (TGI) in experiment [3] was 4.57 µM.
Regarding `CCCCCCCCCCCCOC[C@@]12O[C@@H](CNCCN3CCOCC3)[C@@H](O)[C@@H]1OC(C)(C)O2` [If, 2,3-O-Isopropylidene-6-deoxy-6-aminoethylmorpholinyl-1-O-dodecyl-α-L-xylo-2-hexulofuranose], the IC50 (in experiment [1]; in experiment [2]; in the experiment with BUD-8 human fibroblast) was below 1 µM in each case. The CC50 in experiment [3] is 11 µM. The GI50 in experiment [3] (setting [4]) is 4.68 µM; in experiment [3] (setting [5]), 2.34 µM. The IC (TGI) in experiment [3] is 5.13 µM.
Consider `CCCCCCCCCCCCOC[C@@]12O[C@@H](CNCCN3CCCCC3)[C@@H](O)[C@@H]1OC(C)(C)O2` [Ig, 2,3-O-Isopropylidene-6-deoxy-6-aminoethylpiperidinyl-1-O-dodecyl-α-L-xylo-2-hexulofuranose], for which the IC50 in experiment [1] was below 1 µM; in experiment [2] it was below 3 µM; with BUD-8 human fibroblast, below 3 µM. Moreover, in experiment [3], the CC50 is 20 µM. Besides, the 50% growth inhibitory concentration (GI50) is 6.8 µM in experiment [3] (setting [4]) and 3.39 µM in experiment [3] (setting [5]). Also, in experiment [3], the IC (TGI) is 7.76 µM.
As for `CCCCCCCCCCCCOC[C@@]12O[C@@H](C)[C@@H](OCCN3CCCC3)[C@@H]1OC(C)(C)O2` [Il, 2,3-O-Isopropylidene-6-deoxy-1-O-dodecyl-4-O-ethylpyrrolidinyl-α-L-xylo-2-hexulofuranose], the IC50 (in experiment [1]; in experiment [2]; in the experiment on BUD-8 human fibroblast) was below 1 µM throughout. Further, the CC50 in experiment [3] was 28.8 µM. Further, the GI50 was 8.68 µM in experiment [3] (setting [4]) and 4.07 µM in experiment [3] (setting [5]). In addition, the IC (TGI) in experiment [3] was 10.5 µM. Besides, the “in vitro activity in words” value in experiment [3] (various in vitro cell lines, IC50, average GI50, mean graph pattern) is “significant activity”.
Turning to `CCCCCCCCCCCCOC[C@@]12O[C@@H](C)[C@@H](OCCN3CCOCC3)[C@@H]1OC(C)(C)O2` [In, 2,3-O-Isopropylidene-6-deoxy-1-O-dodecyl-4-O-ethylmorpholinyl-α-L-xylo-2-hexulofuranose], the IC50 in experiment [1] stood at 3.8 µM; in experiment [2], 10.5 µM; in the experiment on BUD-8 human fibroblast it was 12.9 µM. The CC50 in experiment [3] was 91.2 µM. For the same compound, the concentration for 50% growth inhibition (GI50) in experiment [3] (setting [4]) is 74.9 µM; in experiment [3] (setting [5]), 36.3 µM. The IC (TGI) in experiment [3] was 72.4 µM.
Take `CCCCCCCCCCCCOC[C@@]12O[C@@H](CN3CCCCCC3)[C@@H](OCCN3CCCC3)[C@@H]1OC(C)(C)O2` [Ir, 2,3-O-Isopropylidene-6-deoxy-1-O-dodecyl-4-O-ethylpyrrolidinyl-6-hexamethyleneimino-α-L-xylo-2-hexulofuranose]: the IC50 (in experiment [1]; in experiment [2]; in the experiment on BUD-8 human fibroblast) was below 1 µM throughout. The CC50 in experiment [3] was 21.4 µM. The GI50 is 3.22 µM in experiment [3] (setting [4]) and 1.78 µM in experiment [3] (setting [5]). Moreover, the IC (TGI) in experiment [3] is 8.13 µM.
Regarding `CCCCCCCCCCCCOC[C@@]12O[C@@H](CN3CCCCCC3)[C@@H](OCCN3CCCCC3)[C@@H]1OC(C)(C)O2` [It, 2,3-O-Isopropylidene-6-deoxy-1-O-dodecyl-4-O-ethylpiperidinyl-6-hexamethyleneimino-α-L-xylo-2-hexulofuranose], the IC50 (in experiment [1]; in experiment [2]; with BUD-8 human fibroblast) was below 1 µM throughout. For the same compound, the CC50 in experiment [3] was 36.3 µM. For the same compound, the GI50 in experiment [3] (setting [4]) was 2.38 µM; in experiment [3] (setting [5]) it was 1.35 µM. Besides, the IC (TGI) in experiment [3] was 7.76 µM.
As for `CCCCCCCCCCCCOC[C@@]12O[C@@H](CN3CCCCCC3)[C@@H](OCCCN3CCCCC3)[C@@H]1OC(C)(C)O2` [Iu, 2,3-O-Isopropylidene-6-deoxy-1-O-dodecyl-4-O-propylpiperidinyl-6-hexamethyleneimino-α-L-xylo-2-hexulofuranose], the IC50 (in experiment [1]; in experiment [2]; in the experiment on BUD-8 human fibroblast) was below 1 µM in each case. Moreover, the CC50 in experiment [3] is 28.8 µM. Further, the concentration for 50% growth inhibition (GI50) was 0.86 µM in experiment [3] (setting [4]) and 0.501 µM in experiment [3] (setting [5]). In addition, the IC (TGI) in experiment [3] was 3.72 µM.
With `CCCCCCCCCCCCOC[C@@]12O[C@@H](CN3CCCCCC3)[C@@H](OCCN3CCOCC3)[C@@H]1OC(C)(C)O2` [Iv, 2,3-O-Isopropylidene-6-deoxy-1-O-dodecyl-4-O-ethylmorpholinyl-6-hexamethyleneimino-α-L-xylo-2-hexulofuranose], the IC50 (in experiment [1]; in experiment [2]; in the experiment on BUD-8 human fibroblast) was below 1 µM throughout. In addition, the CC50 in experiment [3] was 44.7 µM. Further, the results for the GI50 in experiment [3] (setting [4]) and in experiment [3] (setting [5]) were 3.2 µM and 1.82 µM, respectively. In addition, in experiment [3], the IC (TGI) was 11.5 µM.
As for `CCCCCCCCCCCCOC[C@@]12O[C@@H](CN3CCCCCC3)[C@@H](OCCCc3ccccc3)[C@@H]1OC(C)(C)O2` [Iw, 2,3-O-Isopropylidene-6-deoxy-1-O-dodecyl-4-O-phenylpropyl-6-hexamethyleneimino-α-L-xylo-2-hexulofuranose], the IC50 (in experiment [1]; in experiment [2]; in the experiment with BUD-8 human fibroblast) was below 1 µM each time. For the same compound, in experiment [3], the CC50 was 16.6 µM. In addition, the GI50 in experiment [3] (setting [4]) is 4.18 µM; in experiment [3] (setting [5]), 2.45 µM. In addition, in experiment [3], the IC (TGI) was 10 µM.
